# Laboratory results reported in ChEMBL document CHEMBL4715878 (J Med Chem, 2020).
# Active and inactive are the calls of the source. The rule behind the calls is not given here.
# Legend:
# [1] = system: MCF7; experiment: Antiproliferative activity against human MCF7 cells assessed as lethality at 10 uM after 48 hrs by SRB assay relative to control; type: functional
# [2] = system: Panel NCI-60 (60 carcinoma cell lines); experiment: Antiproliferative activity against human NCI60 cells assessed as lethality at 10 uM after 48 hrs by SRB assay relative to control; type: functional
# [3] = in vitro; conditions: CD-1, mouse, liver microsomes
# Description: Metabolic stability in CD-1 mouse liver microsomes assessed as parent compound remaining at 100 uM measured after 60 mins by LC-MS/MS analysis
# [4] = target: T1, Receptor tyrosine-protein kinase erbB-2 (Homo sapiens, UniProt P04626); experiment: Inhibition of HER2 (unknown origin) in presence of substrate incubated for 30 mins by ADP-Glo assay
# [5] = system: MCF7; experiment: Induction of apoptosis in human MCF7 cells assessed as accumulation in early apoptotic cells at 5 uM incubated for 72 hrs by Annexin V-FITC/PI staining based flow cytometry analysis; type: functional, cell-based
# [6] = system: BT-474; experiment: Antitumor activity against human BT474 cells xenografted in athymic nude mouse assessed as tumor weight at 50 mg/kg, po administered via oral gavage for 5 times in a week for 55 days measured post last dose (reference value: 2.046 g); type: functional; conditions: time 55 day
# [7] = target: T1, Receptor tyrosine-protein kinase erbB-2; experiment: Inhibition of wild-type HER2 (unknown origin) at 100 nM in presence of substrate incubated for 30 mins by ADP-Glo assay relative to control
# [8] = in vitro; conditions: CD-1, mouse, liver microsomes; remark: listed apart in the source
# [9] = system: T47D; experiment: Antiproliferative activity against human T47D cells assessed as cell growth inhibition after 48 hrs by SRB assay; type: functional; conditions: pooled result: one value given for 5 cell lines, strains, targets or settings
# [10] = system: MDA-MB-468; experiment: Antiproliferative activity against human MDA-MB-468 cells assessed as cell growth inhibition at 10 uM after 48 hrs by SRB assay relative to control; type: functional; conditions: read-out: GI
# [11] = system: MCF7; experiment: Potency index, ratio of lapatinib IC50 to test compound IC50 for antiproliferative activity against human MCF7 cells; type: functional
# [12] = Antiproliferative activity against human BC assessed as cell growth inhibition at 10 uM after 48 hrs by SRB assay relative to control; type: functional; conditions: read-out: GI
# [13] = in vitro; conditions: CD-1, mouse, microsomes
# [14] = system: MDA-MB-231; experiment: Induction of apoptosis in human MDA-MB-231 cells assessed as accumulation in late apoptotic cells at 5 uM incubated for 72 hrs by Annexin V-FITC/PI staining based flow cytometry analysis; type: functional, cell-based
# [15] = system: BT-474; experiment: Antitumor activity against human BT474 cells xenografted in athymic nude mouse assessed as appearance of tumor fibrosis at 50 mg/kg, po administered via oral gavage for 5 times in a week for 55 days measured post-last dose by H and E staining based immunohistochemical analysis; type: functional, organism-based; conditions: time 55.0 day
# [16] = system: BT-474; experiment: Induction of apoptosis in human BT474 cells assessed as increase in early apoptotic cells at 0.5 to 5 uM incubated for 72 hrs by Annexin V-FITC/PI staining based flow cytometry analysis relative to control; type: functional; conditions: dose 0.5-5 µM
# [17] = in vitro; conditions: CD-1, mouse, liver microsomes; remark: listed apart in the source
# Description: Metabolic stability in CD-1 mouse liver microsomes assessed as parent compound remaining at 100 uM measured after 60 mins in presence of NADPH by LC-MS/MS analysis
# [18] = system: MDA-MB-231; experiment: Antiproliferative activity against human MDA-MB-231 cells assessed as reduction in cell viability incubated for 72 hrs by WST8 assay; type: functional, cell-based; conditions: MDA-MB-231, 72 h
# [19] = system: BT-474; experiment: Induction of apoptosis in human BT474 cells assessed as increase in late apoptotic cells at 0.5 to 5 uM incubated for 72 hrs by Annexin V-FITC/PI staining based flow cytometry analysis relative to control; type: functional; conditions: dose 0.5-5 µM
# [20] = system: BT-474; experiment: Induction of apoptosis in human BT474 cells assessed as increase in early apoptotic cells incubated for 72 hrs by Annexin V-FITC/PI staining based flow cytometry analysis; type: functional, cell-based; conditions: dose 0.1-5 µM
# [21] = in vitro; conditions: CD-1, mouse, liver microsomes; remark: listed apart in the source
# [22] = system: Panel NCI-60 (60 carcinoma cell lines); experiment: Antiproliferative activity against human NCI60 cells assessed as mean cell growth at 10 uM after 48 hrs by SRB assay relative to control; type: functional
# [23] = system: MDA-MB-231; experiment: Induction of apoptosis in human MDA-MB-231 cells assessed as accumulation in early apoptotic cells at 5 uM incubated for 72 hrs by Annexin V-FITC/PI staining based flow cytometry analysis; type: functional, cell-based
# [24] = system: AU565; experiment: Down regulation of HER2 expression in human AU565 cells at 0.1 IC50 incubated for 24 hrs by western blot analysis; type: functional, cell-based
# [25] = system: BT-474; experiment: Antitumor activity against human BT474 cells xenografted in athymic nude mouse assessed as tumor necrosis at 50 mg/kg, po administered via oral gavage for 5 times in a week for 55 days measured post-last dose by H and E staining based immunohistochemical analysis; type: functional, organism-based; conditions: time 55.0 day
# [26] = system: MCF7; experiment: Antiproliferative activity against human MCF7 cells assessed as reduction in cell viability incubated for 72 hrs by WST8 assay; type: functional, cell-based; conditions: MCF7, 72 h
# [27] = system: MDA-MB-468; experiment: Antiproliferative activity against human MDA-MB-468 cells assessed as cell growth inhibition after 48 hrs by SRB assay; type: functional
# [28] = system: BT-474; experiment: Antitumor activity against human BT474 cells xenografted in athymic nude mouse assessed as suppression of tumor growth by measuring decrease in number of Ki67 positive cells at 50 mg/kg, po administered via oral gavage for 5 times per week for 55 days measured post-last dose by Ki67-staining based immunohistochemistry; type: functional, organism-based; conditions: time 55.0 day
# [29] = system: BT-474; experiment: Antitumor activity against human BT474 cells xenografted in athymic nude mouse assessed as tumor growth inhibition at 50 mg/kg, po administered via oral gavage for 5 times in a week for 55 days measured post last dose; type: functional, organism-based; conditions: time 55.0 day
# [30] = target: T1, Receptor tyrosine-protein kinase erbB-2; experiment: Inhibition of wild-type HER2 (unknown origin) at 0.5 nM in presence of substrate incubated for 30 mins by ADP-Glo assay relative to control
# [31] = Antiproliferative activity against human BC assessed as lethality at 10 uM after 48 hrs by SRB assay relative to control; type: functional
# [32] = system: BT-474; experiment: Antitumor activity against human BT474 cells xenografted in athymic nude mouse assessed as reduction in metastasis of cells at 50 mg/kg, po administered via oral gavage for 5 times per week for 55 days measured post-last dose; type: functional, organism-based; conditions: time 55.0 day
# [33] = system: BT-474; experiment: Antitumor activity against human BT474 cells xenografted in athymic nude mouse assessed as inflammation in tumors at 50 mg/kg, po administered via oral gavage for 5 times per week for 55 days measured post-last dose by H and E staining based immunohistochemical analysis; type: functional, organism-based; conditions: time 55.0 day
# [34] = Antiproliferative activity against human MDA-MB-231 cells assessed as lethality at 10 uM after 48 hrs by SRB assay relative to control; type: functional, MDA-MB-23
# [35] = system: MDA-MB-468; experiment: Antiproliferative activity against human MDA-MB-468 cells assessed as lethality at 10 uM after 48 hrs by SRB assay relative to control; type: functional
# [36] = system: MCF7; experiment: Induction of apoptosis in human MCF7 cells assessed as accumulation in late apoptotic cells at 5 uM incubated for 72 hrs by Annexin V-FITC/PI staining based flow cytometry analysis; type: functional, cell-based
# [37] = system: BT-474; experiment: Antiproliferative activity against human BT474 cells assessed as reduction in cell viability incubated for 72 hrs by WST8 assay; type: functional, cell-based; conditions: BT-474, 72 h
# [38] = system: AU565; experiment: Antiproliferative activity against human AU565 cells assessed as reduction in cell viability incubated for 72 hrs by WST8 assay; type: functional, cell-based; conditions: AU565, 72 h
# [39] = target: T1, Receptor tyrosine-protein kinase erbB-2; experiment: Inhibition of HER2 in human BT474 cells assessed as reduction in Erk1/2 phosphorylation at 0.1 IC50 incubated for 24 to 48 hrs by western blot analysis; type: cell-based; conditions: BT-474, time 24-48 hrs
# [40] = system: BT-474; experiment: Down regulation of HER2 expression in human BT474 cells at 0.5 IC50 after 24 to 48 hrs by Western blot analysis; type: functional, cell-based; conditions: time 24-48 hrs
# [41] = target: T1, Receptor tyrosine-protein kinase erbB-2; experiment: Inhibition of HER2 in human BT474 cells assessed as reduction in Akt phosphorylation at 0.1 IC50 after 24 to 48 hrs by Western blot analysis; type: cell-based; conditions: BT-474, time 24-48 hrs
# [42] = target: Receptor tyrosine-protein kinase erbB-4 (Homo sapiens, UniProt Q15303); experiment: Effect on human recombinant N-terminal GST-tagged HER4 (682 to 993) expressed in baculovirus infected Sf9 insect cells in presence of substrate and [gamma-32ATP] at 10 uM incubated for 30 mins by scintillation counting based radiometry assay relative to control; conditions: 0.5 h, read-out: Activity
# [43] = target: T1, Receptor tyrosine-protein kinase erbB-2; experiment: Inhibition of HER2 in human BT474 cells assessed as reduction in Akt phosphorylation at 0.5 IC50 incubated for 24 to 48 hrs by western blot analysis; type: cell-based; conditions: BT-474, time 24-48 hrs
# [44] = target: T1, Receptor tyrosine-protein kinase erbB-2; experiment: Inhibition of HER2 in human BT474 cells assessed as reduction in Erk1/2 phosphorylation at 0.5 IC50 incubated for 24 to 48 hrs by western blot analysis; type: cell-based; conditions: BT-474, time 24-48 hrs
# [45] = system: BT-474; experiment: Down regulation of HER2 expression in human BT474 cells at 0.1 IC50 after 24 to 48 hrs by Western blot analysis; type: functional, cell-based; conditions: time 24-48 hrs
# [46] = target: T1, Receptor tyrosine-protein kinase erbB-2; experiment: Inhibition of HER2 in human BT474 cells assessed as reduction in Akt phosphorylation at 0.5 IC50 after 24 to 48 hrs by Western blot analysis; type: cell-based; conditions: BT-474, time 24-48 hrs
# [47] = target: T1, Receptor tyrosine-protein kinase erbB-2; experiment: Inhibition of HER2 in human BT474 cells assessed as reduction in Akt phosphorylation at 0.1 IC50 incubated for 24 to 48 hrs by western blot analysis; type: cell-based; conditions: BT-474, time 24-48 hrs
# [48] = target: T1, Receptor tyrosine-protein kinase erbB-2; conditions: Sf9, human, 0.5 h
# [49] = target: Epidermal growth factor receptor (Homo sapiens, UniProt P00533); conditions: 0.5 h
# Description: Effect on human EGFR in presence of substrate and [gamma-32ATP] at 10 uM incubated for 30 mins by scintillation counting based radiometry assay relative to control
# [50] = target: Platelet-derived growth factor receptor alpha (Homo sapiens, UniProt P16234); experiment: Effect on human recombinant N-terminal GST-tagged PDGFRalpha (550 to end residues) expressed in baculovirus infected Sf9 insect cells in presence of substrate and [gamma-32ATP] at 10 uM incubated for 30 mins by scintillation counting based radiometry assay relative to control; conditions: 0.5 h, read-out: Activity
# Sequence of Platelet-derived growth factor receptor alpha (P16234 whole entry): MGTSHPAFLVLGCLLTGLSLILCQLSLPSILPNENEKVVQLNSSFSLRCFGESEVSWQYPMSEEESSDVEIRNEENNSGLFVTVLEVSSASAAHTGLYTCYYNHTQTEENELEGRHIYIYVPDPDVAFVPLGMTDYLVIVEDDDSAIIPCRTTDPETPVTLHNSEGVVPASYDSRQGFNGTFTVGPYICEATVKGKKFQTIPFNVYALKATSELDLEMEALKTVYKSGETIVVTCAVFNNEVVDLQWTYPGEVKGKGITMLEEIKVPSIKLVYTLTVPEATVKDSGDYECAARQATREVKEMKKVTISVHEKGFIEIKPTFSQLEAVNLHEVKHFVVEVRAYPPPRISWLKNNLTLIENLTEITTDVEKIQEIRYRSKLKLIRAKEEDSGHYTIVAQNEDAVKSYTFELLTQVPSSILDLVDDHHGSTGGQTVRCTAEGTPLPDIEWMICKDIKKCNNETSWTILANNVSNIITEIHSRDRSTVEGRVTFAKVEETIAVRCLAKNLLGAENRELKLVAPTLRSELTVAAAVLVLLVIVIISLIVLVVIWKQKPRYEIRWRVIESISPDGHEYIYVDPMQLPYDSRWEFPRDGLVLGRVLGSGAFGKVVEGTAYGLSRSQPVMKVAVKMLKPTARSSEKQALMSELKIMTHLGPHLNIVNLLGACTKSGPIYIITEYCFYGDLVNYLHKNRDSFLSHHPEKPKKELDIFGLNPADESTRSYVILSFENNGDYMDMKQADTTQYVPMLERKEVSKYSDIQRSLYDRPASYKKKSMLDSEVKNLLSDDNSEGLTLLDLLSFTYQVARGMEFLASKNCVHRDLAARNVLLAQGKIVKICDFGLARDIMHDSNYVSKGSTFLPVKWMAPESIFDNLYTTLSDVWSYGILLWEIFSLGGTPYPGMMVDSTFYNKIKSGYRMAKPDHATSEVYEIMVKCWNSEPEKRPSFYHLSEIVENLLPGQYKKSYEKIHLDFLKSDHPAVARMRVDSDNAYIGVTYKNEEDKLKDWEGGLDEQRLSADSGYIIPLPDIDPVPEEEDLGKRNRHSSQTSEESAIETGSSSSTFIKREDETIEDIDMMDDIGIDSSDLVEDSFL
# T1 sequence (P04626 whole entry): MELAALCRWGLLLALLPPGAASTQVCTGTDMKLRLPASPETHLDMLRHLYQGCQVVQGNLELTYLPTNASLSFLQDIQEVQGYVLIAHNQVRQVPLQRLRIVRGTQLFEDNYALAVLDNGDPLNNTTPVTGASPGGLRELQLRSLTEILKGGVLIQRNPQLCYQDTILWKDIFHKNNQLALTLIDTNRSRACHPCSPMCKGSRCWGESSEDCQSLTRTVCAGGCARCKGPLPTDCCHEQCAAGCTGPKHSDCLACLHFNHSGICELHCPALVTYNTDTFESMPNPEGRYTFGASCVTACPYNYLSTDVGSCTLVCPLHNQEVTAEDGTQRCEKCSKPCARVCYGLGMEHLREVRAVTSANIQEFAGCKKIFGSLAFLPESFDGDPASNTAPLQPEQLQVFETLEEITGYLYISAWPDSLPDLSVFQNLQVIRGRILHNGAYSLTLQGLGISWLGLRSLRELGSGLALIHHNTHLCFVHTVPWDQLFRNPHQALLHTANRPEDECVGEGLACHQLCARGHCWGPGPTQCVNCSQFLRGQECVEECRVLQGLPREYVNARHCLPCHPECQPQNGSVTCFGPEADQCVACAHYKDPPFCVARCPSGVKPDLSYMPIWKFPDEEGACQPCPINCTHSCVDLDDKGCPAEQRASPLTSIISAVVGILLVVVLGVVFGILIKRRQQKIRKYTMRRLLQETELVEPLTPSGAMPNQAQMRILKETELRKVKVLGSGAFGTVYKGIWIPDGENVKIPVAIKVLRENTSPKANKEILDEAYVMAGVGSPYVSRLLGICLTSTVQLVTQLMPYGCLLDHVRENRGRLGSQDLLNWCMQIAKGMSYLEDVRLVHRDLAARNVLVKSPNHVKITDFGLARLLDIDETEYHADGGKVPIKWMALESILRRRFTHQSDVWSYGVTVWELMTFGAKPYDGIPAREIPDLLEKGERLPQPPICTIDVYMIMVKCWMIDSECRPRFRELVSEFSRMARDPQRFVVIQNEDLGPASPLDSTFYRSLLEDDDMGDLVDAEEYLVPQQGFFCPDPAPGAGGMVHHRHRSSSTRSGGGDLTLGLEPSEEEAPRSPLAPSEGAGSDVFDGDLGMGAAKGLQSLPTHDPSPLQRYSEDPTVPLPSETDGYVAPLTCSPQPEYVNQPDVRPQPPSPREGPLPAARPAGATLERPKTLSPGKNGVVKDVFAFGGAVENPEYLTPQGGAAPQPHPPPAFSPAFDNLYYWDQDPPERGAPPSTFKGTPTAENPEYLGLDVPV
# Sequence of Receptor tyrosine-protein kinase erbB-4 (Q15303 whole entry): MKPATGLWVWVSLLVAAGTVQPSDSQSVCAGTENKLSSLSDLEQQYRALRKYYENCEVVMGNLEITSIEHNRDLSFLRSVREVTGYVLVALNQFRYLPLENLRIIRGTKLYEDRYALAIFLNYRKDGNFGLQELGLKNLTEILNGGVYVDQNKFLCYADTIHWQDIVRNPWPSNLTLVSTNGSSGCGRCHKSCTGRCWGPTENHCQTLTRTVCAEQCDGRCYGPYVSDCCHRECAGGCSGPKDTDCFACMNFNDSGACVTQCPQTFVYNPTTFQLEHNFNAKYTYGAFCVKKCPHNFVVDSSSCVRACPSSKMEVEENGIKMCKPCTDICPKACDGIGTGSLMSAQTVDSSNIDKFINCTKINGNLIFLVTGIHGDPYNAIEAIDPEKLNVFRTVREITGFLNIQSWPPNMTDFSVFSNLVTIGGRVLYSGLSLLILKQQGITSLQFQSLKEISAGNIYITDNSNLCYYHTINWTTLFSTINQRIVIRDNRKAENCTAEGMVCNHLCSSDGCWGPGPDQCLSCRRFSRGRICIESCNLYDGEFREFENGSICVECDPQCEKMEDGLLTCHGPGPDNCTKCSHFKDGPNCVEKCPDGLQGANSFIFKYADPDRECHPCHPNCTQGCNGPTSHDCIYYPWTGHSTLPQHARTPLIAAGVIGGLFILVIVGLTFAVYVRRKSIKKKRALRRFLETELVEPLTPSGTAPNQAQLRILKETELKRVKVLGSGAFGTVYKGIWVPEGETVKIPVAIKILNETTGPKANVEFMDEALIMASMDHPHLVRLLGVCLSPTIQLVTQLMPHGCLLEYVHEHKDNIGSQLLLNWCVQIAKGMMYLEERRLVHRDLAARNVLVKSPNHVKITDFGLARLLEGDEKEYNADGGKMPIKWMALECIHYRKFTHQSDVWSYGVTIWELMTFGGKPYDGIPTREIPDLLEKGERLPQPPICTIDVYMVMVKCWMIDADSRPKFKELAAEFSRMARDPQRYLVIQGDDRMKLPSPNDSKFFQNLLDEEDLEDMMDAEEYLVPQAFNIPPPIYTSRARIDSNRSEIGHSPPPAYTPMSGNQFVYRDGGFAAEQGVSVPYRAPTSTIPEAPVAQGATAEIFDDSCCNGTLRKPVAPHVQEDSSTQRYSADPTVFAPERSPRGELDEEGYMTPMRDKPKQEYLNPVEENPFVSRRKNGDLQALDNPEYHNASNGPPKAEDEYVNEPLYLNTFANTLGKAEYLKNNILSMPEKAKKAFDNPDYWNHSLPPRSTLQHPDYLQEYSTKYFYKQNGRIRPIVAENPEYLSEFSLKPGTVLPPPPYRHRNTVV
# Sequence of Epidermal growth factor receptor (P00533 whole entry): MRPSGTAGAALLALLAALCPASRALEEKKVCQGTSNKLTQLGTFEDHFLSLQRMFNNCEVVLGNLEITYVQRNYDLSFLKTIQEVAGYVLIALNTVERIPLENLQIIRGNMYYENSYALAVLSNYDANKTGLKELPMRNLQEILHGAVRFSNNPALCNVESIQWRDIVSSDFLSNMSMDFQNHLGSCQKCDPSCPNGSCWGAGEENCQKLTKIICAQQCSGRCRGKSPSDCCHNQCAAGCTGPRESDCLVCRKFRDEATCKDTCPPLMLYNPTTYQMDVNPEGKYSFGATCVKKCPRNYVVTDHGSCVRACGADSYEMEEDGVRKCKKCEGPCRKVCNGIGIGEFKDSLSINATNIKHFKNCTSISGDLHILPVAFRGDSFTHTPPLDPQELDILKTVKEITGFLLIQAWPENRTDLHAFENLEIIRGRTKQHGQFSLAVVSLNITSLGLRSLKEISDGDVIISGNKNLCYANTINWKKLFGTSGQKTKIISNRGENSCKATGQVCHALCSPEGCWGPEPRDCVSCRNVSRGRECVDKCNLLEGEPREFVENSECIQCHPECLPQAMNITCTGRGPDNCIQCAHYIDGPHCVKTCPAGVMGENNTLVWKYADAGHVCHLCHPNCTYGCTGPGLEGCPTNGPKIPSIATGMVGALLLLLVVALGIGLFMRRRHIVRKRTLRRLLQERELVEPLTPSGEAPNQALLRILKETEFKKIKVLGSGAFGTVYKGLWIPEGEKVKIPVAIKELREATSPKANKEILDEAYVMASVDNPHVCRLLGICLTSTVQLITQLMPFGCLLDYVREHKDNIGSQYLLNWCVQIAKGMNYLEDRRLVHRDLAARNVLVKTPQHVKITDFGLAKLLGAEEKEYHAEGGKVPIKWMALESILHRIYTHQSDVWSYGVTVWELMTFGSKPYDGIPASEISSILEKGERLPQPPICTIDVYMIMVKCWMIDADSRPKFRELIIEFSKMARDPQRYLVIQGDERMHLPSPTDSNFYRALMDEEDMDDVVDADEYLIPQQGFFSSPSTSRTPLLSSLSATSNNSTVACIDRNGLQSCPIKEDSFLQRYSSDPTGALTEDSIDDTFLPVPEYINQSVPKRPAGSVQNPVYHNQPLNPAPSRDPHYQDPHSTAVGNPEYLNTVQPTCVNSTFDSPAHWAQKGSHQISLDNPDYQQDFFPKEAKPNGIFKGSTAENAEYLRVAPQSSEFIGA
compound,measurement,setting,value
CN1CCN(CCCOc2ccc3ncnc(Nc4ccc(OCc5cccc(F)c5)c(Cl)c4)c3c2)CC1,Activity,[1],11.7%
same,Activity,[2],1.3%
same,"remaining at 1 h, 100 µM",[3],93.5%
same,IC50,[4],8.3 nM
same,Activity,[5],inactive
same,Activity,[6],1.223 g
same,inhibition,[7],91%
same,"CLint scaled at 1 h, 100 µM",[8],95.7 mL/min/kg
same,GI50,[9],1370 nM
same,inhibition of growth at 10 µM,[10],18.8%
same,Ratio IC50,[11],<=20
same,inhibition of growth at 10 µM,[12],≤ 78.7%
same,"microsomal CLint at 1 h, 100 µM",[13],24.2 µL/min/mg
same,Activity,[14],inactive
same,Activity,[15],Active
same,fold change (FC),[16],<=6
same,"remaining at 1 h, 100 µM",[17],46.4%
same,IC50,[18],737 nM
same,fold change (FC),[19],<=3
same,Activity,[20],Dose-dependent effect
same,"half-life at 1 h, 100 µM",[21],57.4 min
same,Activity,[22],11.85%
same,Activity,[23],inactive
same,Activity,[24],Active
same,Activity,[25],Active
same,IC50,[26],1930 nM
same,GI50,[27],400 nM
same,Activity,[28],Active
same,TGI,[29],Active
same,inhibition,[30],3%
same,Activity,[31],<=78.7%
same,Activity,[32],Active
same,Activity,[33],Active
same,Activity,[34],11.7%
same,Activity,[35],11.7%
same,Activity,[36],inactive
same,IC50,[37],83 nM
same,IC50,[38],99 nM
O=C(Nc1ccc2ncnc(Nc3ccc(Oc4cccc(F)c4)c(Cl)c3)c2c1)c1ccc(CNCCO)cc1,Activity,[1],18%
same,Activity,[2],1.3%
same,"remaining at 1 h, 100 µM",[3],100%
same,IC50,[4],12 nM
same,Activity,[6],0.572 g
same,"CLint scaled at 1 h, 100 µM",[8],< 38 mL/min/kg
same,inhibition,[39],Active
same,Activity,[40],Active
same,inhibition of growth at 10 µM,[10],18.8%
same,inhibition of growth at 10 µM,[12],≤ 78.7%
same,"microsomal CLint at 1 h, 100 µM",[13],< 9.6 µL/min/mg
same,inhibition,[41],Active
same,activity at 10 µM,[42],-98%
same,inhibition,[43],Active
same,Activity,[15],Active
same,fold change (FC),[16],<=6
same,"remaining at 1 h, 100 µM",[17],103%
same,IC50,[18],5230 nM
same,Activity,[19],inactive
same,inhibition,[44],Active
same,Activity,[20],Dose-dependent effect
same,"half-life at 1 h, 100 µM",[21],> 145 min
same,Activity,[22],11.85%
same,Activity,[25],Active
same,Activity,[45],Active
same,IC50,[26],5640 nM
same,GI50,[27],600 nM
same,inhibition,[46],Active
same,Activity,[28],Active
same,inhibition,[47],Active
same,TGI,[29],Active
same,inhibition,[30],3%
same,Activity,[31],<=78.7%
same,Activity,[32],Active
same,activity at 10 µM,[48],-92%
same,activity at 10 µM,[49],-70%
same,Activity,[33],Active
same,activity at 10 µM,[50],-4%
same,Activity,[34],18%
same,Activity,[35],18%
same,IC50,[37],204 nM
same,IC50,[38],205 nM
